Converted amounts (≈) assume the structure as drawn. The source made the active and inactive calls. The rule behind the calls is not given here.
What was measured:
[1] = Cmax in C57BL/6J mouse at 1000 mg/kg, po measured at 24 hrs; assay type: ADME, organism-based; parameters: dose 1000 mg/kg, route oral; settings: in vivo
[2] = Plasma protein binding in human at 1 uM after 4 to 6 hrs by LC-MS/MS analysis; assay type: ADME, cell-free; settings: read-out: PPB (converted)
[3] = Intrinsic clearance in mouse liver microsomes at 0.5 uM; assay type: ADME, Microsome
[4] = Lipophilicity, log D of the compound at pH 7.4 by chromatographic analysis; assay type: physicochemical; settings: buffer
[5] = Clearance in C57BL/6J mouse at 4 mg/kg, iv; assay type: ADME, organism-based; parameters: dose 4 mg/kg, route intravenous; settings: in vivo
[6] = Half life in C57BL/6J mouse at 4 mg/kg, iv; assay type: ADME, organism-based; parameters: dose 4 mg/kg, route intravenous; settings: in vivo
Cytochrome P450 2C19 = Cytochrome P450 2C19 (Homo sapiens, UniProt P33261); experiment: Inhibition of human CYP2C19 by fluorescence assay; assay type: ADME
[7] = Total AUC in C57BL/6J mouse at 1000 mg/kg, po measured at 24 hrs; assay type: ADME, organism-based; parameters: time AUCmax, dose 1000 mg/kg, route oral; settings: in vivo
[8] = Half life in mouse liver microsomes at 0.5 uM; assay type: ADME, Microsome
Cytochrome P450 2C9 = Cytochrome P450 2C9 (Homo sapiens, UniProt P11712); experiment: Inhibition of human CYP2C9 by fluorescence assay; assay type: ADME
[9] = Half life in human liver microsomes at 0.5 uM; assay type: ADME
[10] = Permeability of the compound by artificial membrane permeability assay; assay type: physicochemical; settings: PAMPA; read-out: permeability
[11] = Volume of distribution in C57BL/6J mouse at 4 mg/kg, iv; assay type: ADME, organism-based; parameters: dose 4 mg/kg, route intravenous; settings: in vivo
[12] = system: Mycobacterium tuberculosis; experiment: Bactericidal activity against Mycobacterium tuberculosis H37Rv assessed as log reduction of bacterial CFU at 20 times MIC after 1 week relative to control; assay type: functional
[13] = system: Mycobacterium tuberculosis; experiment: Antitubercular activity against Mycobacterium tuberculosis H37Rv infected in C57BL/6 mouse assessed as reduction of bacterial CFU in lung at 500 to 1000 mg/kg, po administered for 8 days measured 24 hrs post last dose; assay type: functional, organism-based
[14] = Oral bioavailability in C57BL/6J mouse at 50 mg/kg; assay type: ADME, organism-based; settings: in vivo
[15] = system: Mycobacterium tuberculosis; experiment: Antitubercular activity against wild type Mycobacterium tuberculosis H37Rv ATCC 25618 assessed as growth inhibition after 6 days by resazurin dye-based assay; assay type: functional; settings: H37Rv ATCC 25618, 144 h
[16] = AUC (0 to infinity) in C57BL/6J mouse at 50 mg/kg, po; assay type: ADME, organism-based; parameters: time infinity, dose 50 mg/kg, route oral; settings: plasma
[17] = Kinetic solubility of the compound after 1 hr by CLND assay; assay type: physicochemical; settings: read-out: Kinetic_solubility
Liver microsome = experiment: Intrinsic clearance in human liver microsomes at 0.5 uM; assay type: ADME
[18] = Plasma protein binding in mouse at 1 uM after 4 to 6 hrs by LC-MS/MS analysis; assay type: ADME, cell-free; settings: read-out: PPB (converted)
[19] = target: T1, Enoyl-[acyl-carrier-protein] reductase [NADH] (Mycobacterium tuberculosis, UniProt P9WGR1); experiment: Inhibition of Mycobacterium tuberculosis full length biotinylated InhA (270 amino acids) using DDCoA as substrate assessed as NADH oxidation by fluorimetric analysis
T1 sequence (P9WGR1 whole entry): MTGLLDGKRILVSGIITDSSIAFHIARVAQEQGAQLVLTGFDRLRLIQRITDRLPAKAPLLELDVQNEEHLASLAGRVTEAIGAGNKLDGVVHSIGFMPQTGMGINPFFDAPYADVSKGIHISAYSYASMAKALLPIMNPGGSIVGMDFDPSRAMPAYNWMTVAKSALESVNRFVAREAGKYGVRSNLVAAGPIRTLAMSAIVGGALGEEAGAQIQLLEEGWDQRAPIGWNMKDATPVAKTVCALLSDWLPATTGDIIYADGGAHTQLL

Cytochrome P450 3A4 = Cytochrome P450 3A4 (Homo sapiens, UniProt P08684); experiment: Inhibition of human CYP3A4 by fluorescence assay; assay type: ADME
Cytochrome P450 2D6 = Cytochrome P450 2D6 (Homo sapiens, UniProt P10635); experiment: Inhibition of human CYP2D6 by fluorescence assay; assay type: ADME
[20] = Cmax in C57BL/6J mouse at 50 mg/kg, po; assay type: ADME, organism-based; parameters: dose 50 mg/kg, route oral; settings: in vivo
Cytochrome P450 1A2 = target: T2, Cytochrome P450 1A2 (Homo sapiens, UniProt P05177); experiment: Inhibition of human CYP1A2 by fluorescence assay; assay type: ADME
T2 sequence (P05177 whole entry): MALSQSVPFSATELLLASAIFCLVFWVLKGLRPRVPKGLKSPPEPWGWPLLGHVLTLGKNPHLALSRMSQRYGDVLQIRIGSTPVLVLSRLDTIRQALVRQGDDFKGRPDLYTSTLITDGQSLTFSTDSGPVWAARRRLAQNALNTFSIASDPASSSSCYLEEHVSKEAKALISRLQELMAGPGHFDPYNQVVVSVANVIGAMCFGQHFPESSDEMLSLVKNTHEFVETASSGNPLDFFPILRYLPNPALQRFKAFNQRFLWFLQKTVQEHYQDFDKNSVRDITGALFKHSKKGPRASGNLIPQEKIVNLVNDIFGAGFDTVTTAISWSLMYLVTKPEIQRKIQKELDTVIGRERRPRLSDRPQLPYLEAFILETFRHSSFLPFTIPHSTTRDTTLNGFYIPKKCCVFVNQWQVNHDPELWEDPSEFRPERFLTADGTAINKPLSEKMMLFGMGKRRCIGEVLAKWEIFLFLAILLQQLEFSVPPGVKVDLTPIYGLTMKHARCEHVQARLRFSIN

[21] = Tmax in C57BL/6J mouse at 50 mg/kg, po; assay type: ADME, organism-based; parameters: dose 50 mg/kg, route oral; settings: in vivo
[22] = system: Mycobacterium tuberculosis; experiment: Antitubercular activity against Mycobacterium tuberculosis infected in human THP1 cells assessed as growth inhibition after 5 days by luciferase reporter gene assay; assay type: functional, THP-1; settings: 120 h

Cytochrome P450 3A4, sequence (P08684 whole entry): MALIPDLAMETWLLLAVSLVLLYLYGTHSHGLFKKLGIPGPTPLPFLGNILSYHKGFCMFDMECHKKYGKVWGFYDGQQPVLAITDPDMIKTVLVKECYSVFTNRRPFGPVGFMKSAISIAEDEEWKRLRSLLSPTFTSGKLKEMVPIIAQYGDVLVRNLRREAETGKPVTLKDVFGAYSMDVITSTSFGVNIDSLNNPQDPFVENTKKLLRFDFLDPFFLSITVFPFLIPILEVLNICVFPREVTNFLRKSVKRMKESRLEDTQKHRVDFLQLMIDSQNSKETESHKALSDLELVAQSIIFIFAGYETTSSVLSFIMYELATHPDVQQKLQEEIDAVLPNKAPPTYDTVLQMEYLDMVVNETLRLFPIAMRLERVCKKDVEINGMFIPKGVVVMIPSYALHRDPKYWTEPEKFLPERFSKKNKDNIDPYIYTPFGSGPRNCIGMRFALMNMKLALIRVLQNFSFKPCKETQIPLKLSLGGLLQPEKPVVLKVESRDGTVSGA
Cytochrome P450 2C19, sequence (P33261 whole entry): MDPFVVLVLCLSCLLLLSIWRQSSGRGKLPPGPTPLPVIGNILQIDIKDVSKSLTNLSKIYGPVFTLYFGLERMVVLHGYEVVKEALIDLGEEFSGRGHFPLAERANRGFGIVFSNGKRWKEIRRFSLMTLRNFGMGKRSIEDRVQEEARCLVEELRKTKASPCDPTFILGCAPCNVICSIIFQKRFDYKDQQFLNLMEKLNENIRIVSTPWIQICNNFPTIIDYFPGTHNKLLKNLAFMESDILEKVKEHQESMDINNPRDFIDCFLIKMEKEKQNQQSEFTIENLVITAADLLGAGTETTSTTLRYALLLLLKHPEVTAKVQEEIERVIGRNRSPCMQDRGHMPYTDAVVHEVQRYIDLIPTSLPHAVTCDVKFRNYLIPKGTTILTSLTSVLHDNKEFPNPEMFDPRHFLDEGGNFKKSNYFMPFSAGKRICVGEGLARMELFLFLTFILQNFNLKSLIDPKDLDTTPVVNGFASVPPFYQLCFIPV
Cytochrome P450 2C9, sequence (P11712 whole entry): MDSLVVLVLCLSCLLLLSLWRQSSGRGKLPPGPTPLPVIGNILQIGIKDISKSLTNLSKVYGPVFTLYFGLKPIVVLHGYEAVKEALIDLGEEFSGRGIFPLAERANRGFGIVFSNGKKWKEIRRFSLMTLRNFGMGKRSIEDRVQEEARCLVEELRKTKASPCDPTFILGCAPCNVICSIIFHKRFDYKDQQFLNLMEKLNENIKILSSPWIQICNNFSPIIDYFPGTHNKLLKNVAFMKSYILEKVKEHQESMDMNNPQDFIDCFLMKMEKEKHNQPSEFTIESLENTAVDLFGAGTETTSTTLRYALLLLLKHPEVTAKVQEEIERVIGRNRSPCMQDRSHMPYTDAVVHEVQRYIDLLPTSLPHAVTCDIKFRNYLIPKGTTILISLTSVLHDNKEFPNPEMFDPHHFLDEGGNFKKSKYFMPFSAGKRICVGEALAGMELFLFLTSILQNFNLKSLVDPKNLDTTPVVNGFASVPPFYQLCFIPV
Cytochrome P450 2D6, sequence (P10635 whole entry): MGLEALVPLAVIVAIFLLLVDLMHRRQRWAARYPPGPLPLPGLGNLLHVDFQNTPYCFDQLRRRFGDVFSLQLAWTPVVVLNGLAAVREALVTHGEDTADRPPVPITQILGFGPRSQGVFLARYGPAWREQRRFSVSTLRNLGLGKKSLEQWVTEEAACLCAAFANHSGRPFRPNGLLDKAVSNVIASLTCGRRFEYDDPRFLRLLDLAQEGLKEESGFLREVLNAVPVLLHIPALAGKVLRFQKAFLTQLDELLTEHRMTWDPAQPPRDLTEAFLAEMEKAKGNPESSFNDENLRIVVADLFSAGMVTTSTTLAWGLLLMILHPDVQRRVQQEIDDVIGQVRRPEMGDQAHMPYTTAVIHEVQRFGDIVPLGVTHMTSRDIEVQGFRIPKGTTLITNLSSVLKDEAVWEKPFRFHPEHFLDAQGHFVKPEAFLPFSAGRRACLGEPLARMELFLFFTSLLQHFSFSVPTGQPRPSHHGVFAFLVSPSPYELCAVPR

Q: With CCc1cc(C(=O)N[C@@H]2C[C@@H](C(N)=O)N(C(=O)c3coc4ccccc34)C2)n(CC)n1 as the molecule, how does the Cmax [1] read?
A: The Cmax was 23000 ng/mL.

Q: What about the fraction unbound at 1 µM [2] of the same molecule?
A: Its fraction unbound at 1 µM is 0.013.

Q: What about the CLH [3] of the same molecule?
A: Its CLH is < 0.3 mL/min/g.

Q: And the chromatographic logD [4]?
A: The chromatographic logD was 2.94.

Q: And the clearance [5]?
A: Its clearance is 85.5 mL/min/kg.

Q: What about the half-life [6] of the same molecule?
A: Its half-life is 28.2 min.

Q: What about the IC50 (Cytochrome P450 2C19) of the same molecule?
A: Its IC50 is > 50 µM.

Q: What about the AUC at 24 h [7] of the same molecule?
A: The AUC at 24 h was 73700 ng·h/mL.

Q: What about the half-life at 0.5 µM [8] of the same molecule?
A: Its half-life at 0.5 µM is > 30 min.

Q: What about the IC50 (Cytochrome P450 2C9) of the same molecule?
A: Its IC50 is > 50 µM.

Q: What about the half-life at 0.5 µM [9] of the same molecule?
A: Its half-life at 0.5 µM is > 30 min.

Q: What about the Papp [10] of the same molecule?
A: The Papp was 7.8 ×10⁻⁶ cm/s.

Q: And the Vd [11]?
A: The Vd was 3.68 L/kg.

Q: And the FC [12]?
A: The FC was >2.

Q: What about the Activity [13] of the same molecule?
A: Its Activity is “inactive”.

Q: And the bioavailability [14]?
A: The bioavailability was 35.6%.

Q: And the MIC90 [15]?
A: Its MIC90 is 0.5 µM (≈ 0.212 µg/mL).

Q: What about the AUC(0-inf) [16] of the same molecule?
A: Its AUC(0-inf) is 3590 ng·h/mL.

Q: What about the solubility kinetic at 1 h [17] of the same molecule?
A: The solubility kinetic at 1 h was > 441 µM.

Q: What about the CLH (Liver microsome) of the same molecule?
A: The CLH was < 0.3 mL/min/g.

Q: What about the fraction unbound at 1 µM [18] of the same molecule?
A: Its fraction unbound at 1 µM is 0.153.

Q: What about the IC50 [19] of the same molecule?
A: Its IC50 is 0.004 µM.

Q: And the IC50 (Cytochrome P450 3A4)?
A: The IC50 was > 50 µM.

Q: And the IC50 (Cytochrome P450 2D6)?
A: Its IC50 is > 50 µM.

Q: And the Cmax [20]?
A: The Cmax was 1750 ng/mL.

Q: And the IC50 (Cytochrome P450 1A2)?
A: Its IC50 is > 50 µM.

Q: And the Tmax [21]?
A: The Tmax was 49.8 min.

Q: What about the MIC [22] of the same molecule?
A: Its MIC is 0.24 µM (≈ 0.102 µg/mL).

From ChEMBL document CHEMBL3124857, “Encoded library technology as a source of hits for the discovery and lead optimization of a potent and selective class of bactericidal direct inhibitors of Mycobacterium tuberculosis InhA” (J Med Chem, 2014)
